# In patent US9724328B2, “Methods and compositions for treatment of lipid storage disorders” (NEUROTROPE BIOSCIENCE, priority 2014, dated 2017):
# Tests used:
# M12 NPC1 CHO cells = assay: Cholesterol esterification assay ([3H] oleate); format: cell-based, Chinese hamster; details: 50 μg/ml fatty acid for 2 days followed by expression of PKC ε
# Description: The preparation of [^3H] oleate substrate and esterification assays were performed as previously described. Cells were treated with 50 μg/ml fatty acid for 2 days and then transfected with PKE α or PKC ε for 24 hrs before esterification assays. All values were generated in triplicate and normalized for total cell protein.
# human NPC1 3123 cells = assay: Sphingolipid transport, BODIPY-LacCer staining; format: cell-based; details: 48 hours
# Description: For filipin staining in transfected cells, cells were transfected with PKC or Rab9 using Fugene 6 according to the manufacturer's recommendations. After 48 hrs, cells were stained with filipin as we have previously described. Cells were mounted onto slides using Fluoromount-G (SouthernBiotech, Birmingham, Ala.) and analyzed on a Nikon Eclipse microscope fitted with a charge-coupled-device camera (Nikon, Melville, N.Y.). Images were acquired with MetaVue software and then deconvoluted using AutoDeblur software from AutoQuant Imaging, Inc (Troy, N.Y.). For quantitation of filipin fluorescence, cells were seeded at 3×10^5 cells/well in 6-well dishes and allowed to settle overnight, after which the medium was replaced with medium containing 10% lipoprotein deficient serum (LPDS) for 4 days. Cells were incubated with oleic/linoleic acids for 48 hours, DCPLA/DHA for 24 hrs, or diazoxide for 72 hrs before fixing and staining with filipin as we have previously described. Images were acquired using the same exposure time for all samples. Fluorescence intensity was determined using the integrated intensity function of MetaVue software; at least 150 cells were quantitated for each sample and each experiment was repeated 3 times. For analysis of sphingolipid transport, cells were incubated with oleic/linoleic acids, DCP-LA, or PMA for 48 hours before BODIPY-LacCer staining was performed as previously described.
# [1] = test system: human NPC1 fibroblasts (NPC1 3123); assay: Soluble vimentin levels by Western blot after fatty acid treatment; format: cell-based; details: for soluble vimentin in NPC1 cells: discussion statement, FIG. 5, concentration not given; for levels of soluble vimentin in cell lysates: human NPC1 fibroblasts, 50 μg/ml, 48 hours (FIG. 5 legend: 24 hrs)
# Description: The human wild-type fibroblast (GM05387), NPClo fibroblast (GM09341), and NPC1 fibroblast (GM03123) cell lines were obtained from Coriell Cell Repositories (Camden, N.J.). The M12 Chinese hamster ovary (CHO) cell line and its wild-type parental line were obtained and cultured. Fibroblast cell lines were cultured in DMEM, and CHO cells were cultured in DMEM/F12 (50:50) medium, supplemented with 10% FBS, 2 mM L-glutamine, and 50 μg/ml gentamicin in a humidified incubator at 37° C. with 5% CO2.
# Transfected cells were harvested with PBS containing 2 mM EDTA at 2 days post-transfection. Soluble and insoluble cell fractions were prepared as described previously. Briefly, to obtain the soluble/cytoplasmic fraction, cells were incubated on ice for 30 min in cold “phospho” buffer [150 mM NaCl, 20 mM NaF, 100 μM Na3VO4, 20 mM Hepes, pH 7.5), 1% (v/v) Igepal, 10% (v/v) glycerol, and 1 μL/20 mg tissue of protease inhibitor cocktail] and then centrifuged for 20 min at 14,000 rpm at 4° C.; the clear supernatant was frozen in aliquots at a concentration of 1 μg/μl. The pellet (insoluble fraction) was washed 3 times in ice-cold PBS containing 2 mM EDTA and then resuspended in a volume of “Triton” buffer [PBS, 1% (w/v) SDS, and 0.1% (v/v) Triton X-100] equal to the “phospho” buffer. This solution was boiled for 10 min and sonicated until the solution became clear. The protein concentration of this fraction was adjusted to 1 μg/μl according to the protein concentrations determined for the soluble/cytoplasmic fraction. Protein concentrations were determined using the fluorescamine method as we have described. 4-12% Bis-Tris precast gel (Invitrogen, Carlsbad, Calif.) and then transferred onto a Protran membrane using an XCell II apparatus (Invitrogen, Carlsbad, Calif.) according to the manufacturer's instructions. Blots were processed as described previously.
# NPC3-SV cells = assay: Stored cholesterol by filipin staining in NPC3-SV cells; format: cell-based, Human; details: for clearance of cholesterol (stored cholesterol levels): 48 h, FIG. 8
# Description: (§1) Cells are plated in 6-well dishes and treated with the appropriate compound (dissolved in DMSO) at the indicated dose daily for 48 hrs. Control cells receive DMSO. After 48 hrs cells are transferred to cover slips with fresh compound and grown for another 24 hrs. Cover slips are collected and processed for microscopy.
# (§2) Filipin: For detection of unesterified cholesterol in lysosomes, cells were fixed in formalin for 30 min at 4° C., washed 2×, 5 min in 0.9% NaCl, incubated for 45 min with 0.01% filipin in PBS at room temperature, and then washed 2×, 5 min. Fluorescence was observed using a Nikon Eclipse fluorescence microscope (Nikon, Melville, N.Y.) equipped with a CCD camera. Fluorescence signals were quantified using Nikon's imaging and quantitation software package NIS Elements, v. 3.22.
# NPC24-SV cells [2] = assay: Cholesterol accumulation by filipin staining in NPC24-SV cells; format: cell-based, Human
# Description: as §1, §2
# NPC3SV cells = format: cell-based, Human; details: FIG. 12, concentration not given
# C57Bl6 NPC1 mice = assay: Survival of C57Bl6 NPC1 mice dosed IP twice weekly; format: in vivo, mouse
# Description: A total of […] C57Bl6 NPC1 mice, mixed sex, were used. These mice were separated into 5 groups of 5 mice each, Groups 1-5.
# Bryostatin 1 (purity≧95%) from Aphios (Woburn, Mass.), 1 vial 2 mg, was solubilized in a 5% DMSO, 20% Solutol and 75% Saline solution and used as the study drug. The negative (vehicle) control is a 5% DMSO, 20% Solutol and 75% Saline solution. DCP-LA from Sigma-Aldrich: 5 mg oil/vial was used as an additional in vitro active compound. Bryostatin 1 (API) was stored at or below −20° C. and formulated as needed. The formulated bryostatin 1 was stored at 2° to 8° C. for less than 24 hour(s). The DCP-LA and the vehicle controls were stored at 2°-8° C.
# The stock solution of bryostatin 1 is 10 mg/ml in DMSO, which is kept at −80° C. in aliquots. The dosing formulation is made by diluting the stock first in DMSO, then adding solutol, and lastly saline—with more insoluble compounds, adding the drug stock to complete vehicle will cause the compound to come out of solution, so we make formulations stepwise. The dosing volume is always 100 μl. Mice weigh approximately 20 g.
# The mice are dosed twice weekly (Mon and Thu) starting at 30 days for up to 150 days.
# C57 NPC1 mice have an average life span of ˜110 days. By Day 70 mice reach an average weight of 18-22 grams. Untreated NPC1 mice develop ataxia and will begin to lose weight at ˜70 days (see FIG. 17). Ataxia (or lack of voluntary muscle control) is a clinical feature of NPC1 mice, which may be described as shaking. Treatment will be initiated at ˜30 days of age, average NPC mouse weight of 10 g. If the drug is efficacious injections will continue past day 70-80. An extension of life of about 20-30% will mean that animals will need to be treated up to day 130-150.
# NPC24-SV cells [3] = assay: Glycosphingolipid accumulation by VTB staining in NPC24-SV cells; format: cell-based, Human; details: 0.1 nM
# NPC cells = details: earlier study [5]; cited from earlier work
compound,measurement,setting,value
CCCCC/C=C\C/C=C\CCCCCCCC(=O)O [linoleic acid],cholesterol esterification levels over untreated cells,M12 NPC1 CHO cells,~3.5 fold
same,BODIPY-LacCer transport to the trans-Golgi network,human NPC1 3123 cells; 2 μg/ml,the lipid can be seen in the TGN
same,soluble vimentin in NPC1 cells,[1],increase of soluble vimentin
same,levels of soluble vimentin in cell lysates,[1],significantly increases the amount of soluble vimentin
"CCCCCCCC/C=C\CCCCCCCC(=O)O [oleic acid, cis-9-octadecenoic acid]",cholesterol esterification levels over untreated cells,M12 NPC1 CHO cells,~3.5 fold
same,BODIPY-LacCer transport to the trans-Golgi network,human NPC1 3123 cells; 2 μg/ml,the lipid can be seen in the TGN
same,soluble vimentin in NPC1 cells,[1],increase of soluble vimentin
same,levels of soluble vimentin in cell lysates,[1],significantly increases the amount of soluble vimentin
CC1=NS(=O)(=O)c2cc(Cl)ccc2N1 [diazoxide],clearance of cholesterol (stored cholesterol levels),NPC3-SV cells,able to induce clearance of cholesterol
"CCCCCC1CC1CC1CC1CCCCCCCC(=O)O (centres unmarked) [DCP-LA, 8-[2-(2-pentyl-cyclopropylmethyl)-cyclopropyl]-octanoic acid]",filipin accumulation,"NPC24-SV cells [2]; NPC24-SV cells, FIG. 11, concentration not given",decrease filipin accumulation
same,ganglioside transport block,NPC3SV cells,release the ganglioside transport block
same,BODIPY-LacCer transport to the trans-Golgi network,human NPC1 3123 cells; 20 μM,the lipid can be seen in the TGN
same,clearance of cholesterol (stored cholesterol levels),NPC3-SV cells,able to induce clearance of cholesterol
same,soluble vimentin in NPC1 cells,[1],increase of soluble vimentin
CCC/C=C/C=C/C(=O)O[C@H]1/C(=C/C(=O)OC)C[C@H]2C[C@H]([C@@H](C)O)OC(=O)C[C@H](O)C[C@@H]3C[C@H](OC(C)=O)C(C)(C)[C@](O)(C[C@@H]4C/C(=C/C(=O)OC)C[C@H](/C=C/C(C)(C)[C@]1(O)O2)O4)O3 [bryostatin 1],effect in cholesterol assay,"NPC24-SV cells [2]; 0.1 nM, NPC24-SV cells",no effect
same,cholesterol clearance,"NPC24-SV cells [2]; 10 nM, NPC24-SV cells, FIG. 11",able to effect cholesterol clearance
same,concentration showing a positive therapeutic effect,"NPC24-SV cells [2]; human NPC1 disease cells, summary of Example 2",10 to 100 nM
same,age that mice lived past,C57Bl6 NPC1 mice; 10 μg/kg IP twice weekly from 30 days of age,> 100 days
same,age that mice lived past,C57Bl6 NPC1 mice; 20 μg/kg IP twice weekly from 30 days of age,> 100 days
same,age that mice lived past,C57Bl6 NPC1 mice; 30 μg/kg IP twice weekly from 30 days of age,> 100 days
same,effect in sphingolipid assay,NPC24-SV cells [3],no effect
same,clearance of cholesterol (stored cholesterol levels),NPC3-SV cells,able to induce clearance of cholesterol
same,stored cholesterol levels,"NPC3-SV cells; 72 h, FIG. 9",activity in the nanomolar concentration range
"CCCCCCCCCCCCCC(=O)O[C@@H]1[C@@H](C)[C@@]2(O)[C@@H](C=C(CO)C[C@]3(O)C(=O)C(C)=C[C@@H]23)[C@@H]2C(C)(C)[C@]12OC(C)=O [PMA, phorbol-12-myristate-13-acetate]",BODIPY-LacCer transport to the trans-Golgi network,human NPC1 3123 cells; 100 nM,the lipid can be seen in the TGN
same,NPC lipid storage phenotype,NPC cells,ameliorated the NPC lipid storage phenotype
same,levels of soluble vimentin,NPC cells,increased levels of soluble vimentin
